Laboratory results published in patent publication US20240091385A1, “METHODS OF ASSESSING SELECTIVE GLUCOCORTICOID RECEPTOR MODULATION AND OF IDENTIFYING AND TREATING PATIENTS LIKELY TO BENEFIT FROM GLUCOCORTICOID RECEPTOR MODULATION” (Corcept Therapeutics Incorporated, priority 2022, published 2024).

Legend:
CLEC10A = assay: Whole blood CLEC10A RNA after prednisone in healthy volunteers (NCT03335956); assay type: in vivo, human
Experimental: This was a Phase 1 single-ascending dose (SAD) and multiple-ascending dose (MAD) study to assess the safety and pharmacological activity of exicorilant. Co-dosing of exicorilant with prednisone 25 mg, and comparison to the effects of prednisone alone, established the pharmacological activity of exicorilant. Only the specimens collected after dosing with prednisone alone were analyzed for the studies described below. Blood was collected in the morning prior to dosing in PAXgene RNA tubes. 4 hours after a dose of prednisone 25 mg, blood was drawn again. […] (Nanostring Technologies, Seattle WA, USA).

other hormone receptors = details: cited from earlier work
[1] = system: GR target genes in whole blood; assay: Whole blood RNA fold change (NanoString 444-gene panel), randomized phase 2 ovarian cancer study NCT03776812; assay type: in vivo, human; details: ovarian phase 2 study, summary statement
Experimental: This phase 2, open-label, randomized, 3-arm study was performed in accordance with the principles of the Declaration of Helsinki, the Good Clinical Practice guidelines of the International Council on Harmonisation, and local regulatory requirements. The protocol was approved by the institutional review board or independent ethics committee at each investigative site. All patients or their legally authorized representatives provided written informed consent. […] Blood (2.5 mL) was drawn into a […] blood RNA tube (Qiagen) using a butterfly needle. The tube was sealed and gently inverted 10 times. The tube was frozen in dry ice and stored at -80° C. until RNA extraction. […] (Nanostring Technologies, Seattle WA, USA). […] For baseline only analyses, gene abundance is reported as normalized counts. Data were analyzed and adjusted P-values (with Benjamini-Yekutieli false discovery rate corrections) were determined in nSolver 4.0 (NanoString Technologies, Seattle, WA). Cross validated random forest techniques were used to derive a gene signature that could distinguish the relacorilant+nab-paclitaxel group from nab-paclitaxel alone ([…], Poland, Study WO5).

C[C@]12C=CC(=O)C=C1CC[C@@H]1[C@@H]2C(=O)C[C@@]2(C)[C@H]1CC[C@]2(O)C(=O)CO [prednisone]
CLEC10A fold change (CLEC10A; 4 hours after prednisone 25 mg, adj P=6.4×10^−8): 0.37 | CLEC10A expression in whole blood (CLEC10A; prednisone 25 mg): suppressed

Cn1cc(S(=O)(=O)N2CCC3=Cc4c(cnn4-c4ccc(F)cc4)C[C@]3(C(=O)c3cc(C(F)(F)F)ccn3)C2)cn1 [relacorilant, (R)-(1-(4-fluorophenyl)-6-((1-methyl-1H-pyrazol-4-yl)sulfonyl)-4,4a,5,6,7,8-hexahydro-1H-pyrazolo[3,4-g]isoquinolin-4a-yl)(4-(trifluoromethyl)pyridin-2-yl)methanone]
affinity for other hormone receptors (other hormone receptors): no affinity | CLEC10A expression in whole blood [1]: induced

Cn1ncc(S(=O)(=O)N2CC[C@H]3Cc4c(cnn4-c4ccc(F)cc4)C[C@]3(C(=O)c3cc(C(F)(F)F)ccn3)C2)n1 [exicorilant, ((4aR,8aS)-1-(4-fluorophenyl)-6-((2-methyl-2H-1,2,3-triazol-4-yl)sulfonyl)-4,4a,5,6,7,8,8a,9-octahydro-1H-pyrazolo[3,4-g]isoquinolin-4a-yl)(4-(trifluoromethyl)pyridin-2-yl)methanone]
affinity for other hormone receptors (other hormone receptors): no affinity
